We go through 24 compounds from US9540343B2 (Gilead Sciences, Inc., priority 2011, dated 2017).

Molecules are shown by their SMILES.

One series deals with HIV-IIIb. The series is described as follows: Test A: Antiviral assay in MT4 cells. In kind it is cell-based, HIV-1. The settings on record: Human immunodeficiency virus 1, IIIB, MT4, 120 h, read-out: % inhibition at 2 μM, percent inhibition of virus-induced cell killing, from dose response curve at 2 uM drug; MT-4 cells infected with HIV-IIIb, 5 days, CellTiter-Glo. (Cellular ATP, detected with luciferase, serves as a proxy for viable cell number.)

The next series is described as follows: in vitro. The settings on record: human, uninfected MT-4 cells, CC50 (nM), same protocol as Test A, CellTiter-Glo. The method, boiled down: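 Cytoprotection read-out: CellTiter-Glo chemiluminescence after 5 days at 37 °C of HIV-IIIb-infected MT-4 cells (m.o.i. 0.003) with compound in 10-point 3-fold dilutions, quadruplicate, 10% FBS. Cytotoxicity (CC50) measured identically without virus.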

The inhibition is the change of the read-out against control, counted positive when it falls. By CC50 is commonly meant the concentration giving 50% cytotoxicity. A low value points to greater toxicity to the cells. In the case of `NC(=O)c1cc(-c2cccnc2[C@H](Cc2cc(F)cc(F)c2)NC(=O)Cn2nc(Br)nc2C2CC2)ccc1F` [Example 366, (S)-5-(2-(1-(2-(3-bromo-5-cyclopropyl-1H-1,2,4-triazol-1-yl)acetamido)-2-(3,5-difluorophenyl)ethyl)pyridin-3-yl)-2-fluorobenzamide], in the series on HIV-IIIb, the inhibition at 2 µM amounted to 6%. Also, the CC50 at 5 days in the series “in vitro” is over 53200 nM.

Turning to `Cc1cc2ccccc2n1CC(=O)N[C@@H](Cc1cc(F)cc(F)c1)c1ncccc1-c1ccc(F)c(C(N)=O)c1` [Example 367, (S)-5-(2-(2-(3,5-difluorophenyl)-1-(2-(2-methyl-1H-indol-1-yl)acetamido)ethyl)pyridin-3-yl)-2-fluorobenzamide], in the series with HIV-IIIb, the inhibition at 2 µM is 20%. In the series “in vitro”, this compound had a CC50 at 5 days of 13400 nM.

Regarding `NC(=O)c1cc(-c2cccnc2[C@H](Cc2cc(F)cc(F)c2)NC(=O)Cn2nc(C(F)(F)F)c3c2CCSC3)ccc1F` [Example 232, (S)-5-(2-(2-(3,5-difluorophenyl)-1-(2-(3-(trifluoromethyl)-6,7-dihydrothiopyrano[4,3-c]pyrazol-1(4H)-yl)acetamido)ethyl)pyridin-3-yl)-2-fluorobenzamide], in the series with HIV-IIIb, the inhibition at 2 µM was 61%. This compound showed a CC50 at 5 days in “in vitro” of 18700 nM.

On to `NC(=O)c1cccc(-c2cccnc2[C@H](Cc2cc(F)cc(F)c2)NC(=O)Cn2cnc3c2CCCC3)c1` [Example 382, (S)-3-(2-(2-(3,5-difluorophenyl)-1-(2-(4,5,6,7-tetrahydro-1H-benzo[d]imidazol-1-yl)acetamido)ethyl)pyridin-3-yl)benzamide], for which the inhibition at 2 µM in the series with HIV-IIIb turned out to be 85%. Further, in the series “in vitro”, the CC50 at 5 days is over 39900 nM.

On to `O=C(Cn1nc(C(F)F)c2c1C(F)(F)C1CC21)N[C@@H](Cc1cc(F)cc(F)c1)c1ncncc1-c1ccc2cccnc2c1` (stereo partly drawn) [Example 124C, 2-(3-(difluoromethyl)-5,5-difluoro-3b,4,4a,5-tetrahydro-1H-cyclopropa[3,4]cyclopenta[1,2-c]pyrazol-1-yl)-N—((S)-2-(3,5-difluorophenyl)-1-(5-(quinolin-7-yl)pyrimidin-4-yl)ethyl)acetamide], for which the inhibition at 2 µM with HIV-IIIb came to 77%. This compound also gave a CC50 at 5 days in “in vitro” of 20200 nM.

In the case of `NC(=O)c1cc(-c2cccnc2[C@H](Cc2cc(F)cc(F)c2)NC(=O)Cc2ccccc2)ccc1F` [Example 592], the inhibition at 2 µM in the series with HIV-IIIb came to 8%. This compound also had a CC50 at 5 days in “in vitro” of over 53200 nM.

Regarding `COc1ccc(-c2cccnc2[C@H](Cc2cc(F)cc(F)c2)NC(=O)Cc2c[nH]c3ccc(O)cc23)cc1` [Example 13G, (S)—N-(2-(3,5-difluorophenyl)-1-(3-(4-methoxyphenyl)pyridin-2-yl)ethyl)-2-(5-hydroxy-1H-indol-3-yl)acetamide], the inhibition at 2 µM in the series with HIV-IIIb was 97%. Also, it took 25600 nM to reach half-maximal cytotoxicity in “in vitro” (CC50 at 5 days).

In the case of `Cc1[nH]c2ccc(F)cc2c1CC(=O)N[C@@H](Cc1cc(F)cc(F)c1)c1ncccc1-c1cccc(C(N)=O)c1` [Example 517E, (S)-3-(2-(2-(3,5-difluorophenyl)-1-(2-(5-fluoro-2-methyl-1H-indol-3-yl)acetamido)ethyl)pyridin-3-yl)benzamide], in the series with HIV-IIIb, the inhibition at 2 µM amounted to 87%. Also, half-maximal cytotoxicity in “in vitro” (CC50 at 5 days) was put at 19100 nM.

On to `NC(=O)c1cc(-c2cccnc2[C@H](Cc2cc(F)cc(F)c2)NC(=O)Cn2nc(C(F)(F)F)c3c2CCC3=O)ccc1F` [Example 492B, (S)-5-(2-(2-(3,5-difluorophenyl)-1-(2-(4-oxo-3-(trifluoromethyl)-5,6-dihydrocyclopenta[c]pyrazol-1(4H)-yl)acetamido)ethyl)pyridin-3-yl)-2-fluorobenzamide], for which the inhibition at 2 µM in the series with HIV-IIIb was 2%. The compound also gave a CC50 at 5 days in “in vitro” of over 53200 nM.

Take `CS(=O)(=O)c1ccc(-c2cccnc2[C@H](Cc2cc(F)cc(F)c2)NC(=O)Cc2c[nH]c3ccc(F)cc23)cc1` [Example 413, (S)—N-(2-(3,5-difluorophenyl)-1-(3-(4-(methylsulfonyl)phenyl)pyridin-2-yl)ethyl)-2-(5-fluoro-1H-indol-3-yl)acetamide]: the inhibition at 2 µM with HIV-IIIb was determined as 61%. The compound also displayed a CC50 at 5 days in the series “in vitro” of 14500 nM.

`O=C(Cc1n[nH]c2ccccc12)NC(Cc1cc(F)cc(F)c1)c1nccnc1-c1ccc(Cl)cc1` (stereo not drawn) [Example 447, N-(1-(3-(4-chlorophenyl)pyrazin-2-yl)-2-(3,5-difluorophenyl)ethyl)-2-(1H-indazol-3-yl)acetamide]: the inhibition at 2 µM with HIV-IIIb amounted to 0%. For the same compound, the midpoint of cytotoxicity in “in vitro”, the CC50 at 5 days, lay at 13000 nM.

Take `NC(=O)c1cc(-c2cccnc2[C@H](Cc2cc(F)cc(F)c2)NC(=O)Cn2[nH]c(=O)c3c2CCCC3)ccc1F` [Example 123E, (S)-5-(2-(2-(3,5-difluorophenyl)-1-(2-(3-oxo-2,3,4,5,6,7-hexahydro-1H-indazol-1-yl)acetamido)ethyl)pyridin-3-yl)-2-fluorobenzamide]: the inhibition at 2 µM with HIV-IIIb amounted to 84%. Also, the CC50 at 5 days in “in vitro” is over 53200 nM.

With `NC(=O)c1cc(-c2cccnc2[C@H](Cc2cc(F)cc(F)c2)NC(=O)Cn2nc(C(F)(F)F)c3c2CC(=O)C3)ccc1F` [Example 237, (S)-5-(2-(2-(3,5-difluorophenyl)-1-(2-(5-oxo-3-(trifluoromethyl)-5,6-dihydrocyclopenta[c]pyrazol-1(4H)-yl)acetamido)ethyl)pyridin-3-yl)-2-fluorobenzamide], the inhibition at 2 µM with HIV-IIIb turned out to be 1%. In addition, in the series “in vitro”, the CC50 at 5 days is 38200 nM.

Regarding `NC(=O)c1cc(-c2cccnc2[C@H](Cc2cc(F)cc(F)c2)NC(=O)Cn2nc(C(F)(F)Oc3ccccc3)c3c2CCCC3)ccc1F` [Example 159, (S)-5-(2-(1-(2-(3-(difluoro(phenoxy)methyl)-4,5,6,7-tetrahydro-1H-indazol-1-yl)acetamido)-2-(3,5-difluorophenyl)ethyl)pyridin-3-yl)-2-fluorobenzamide], the inhibition at 2 µM with HIV-IIIb was 84%. Moreover, it took 19100 nM to reach half-maximal cytotoxicity in “in vitro” (CC50 at 5 days).

Regarding `O=C(Cn1nc(C(F)F)c2c1C(F)(F)C1CC21)N[C@@H](Cc1cc(F)cc(F)c1)c1ncccc1-c1ccc(OC2CC2)cc1` (stereo partly drawn) [Example 268, N—((S)-1-(3-(4-cyclopropoxyphenyl)pyridin-2-yl)-2-(3,5-difluorophenyl)ethyl)-2-(3-(difluoromethyl)-5,5-difluoro-3b,4,4a,5-tetrahydro-1H-cyclopropa[3,4]cyclopenta[1,2-c]pyrazol-1-yl)acetamide], the inhibition at 2 µM with HIV-IIIb worked out at 27%. For the same compound, in the series “in vitro”, the CC50 at 5 days was 27700 nM.

Take `NC(=O)c1cccc(-c2cccnc2[C@H](Cc2cc(F)cc(F)c2)NC(=O)C2CC23C(=O)Nc2ccccc23)c1` (stereo partly drawn) [Example 225, N—((S)-1-(3-(3-carbamoylphenyl)pyridin-2-yl)-2-(3,5-difluorophenyl)ethyl)-2′-oxospiro[cyclopropane-1,3′-indoline]-2-carboxamide]: the inhibition at 2 µM in the series with HIV-IIIb was 15%. Moreover, the CC50 at 5 days in the series “in vitro” amounted to 23000 nM.

Regarding `NC(=O)c1cc(-c2cccnc2[C@H](Cc2cc(F)cc(F)c2)NC(=O)Cn2nc(C(F)(F)F)c3c2C(=O)CC3(F)F)ccc1F` [Example 551, (S)-5-(2-(1-(2-(4,4-difluoro-6-oxo-3-(trifluoromethyl)-5,6-dihydrocyclopenta[c]pyrazol-1(4H)-yl)acetamido)-2-(3,5-difluorophenyl)ethyl)pyridin-3-yl)-2-fluorobenzamide], in the series with HIV-IIIb, the inhibition at 2 µM was 0%. In the series “in vitro”, the CC50 at 5 days was over 53200 nM.

As for `NC(=O)c1cc(-c2cccnc2[C@H](Cc2cc(F)cc(F)c2)NC(=O)CC2C(=O)Nc3cc(F)ccc32)ccc1F` (stereo partly drawn) [Example 246, 5-(2-((1S)-2-(3,5-difluorophenyl)-1-(2-(6-fluoro-2-oxoindolin-3-yl)acetamido)ethyl)pyridin-3-yl)-2-fluorobenzamide], in the series on HIV-IIIb, the inhibition at 2 µM was determined as 1%. The same compound yielded a 50% cytotoxic concentration (CC50) at 5 days in “in vitro” of 47900 nM.

As to `O=C(Cc1c[nH]c2ccc(O)cc12)N[C@@H](Cc1cc(F)cc(F)c1)c1ncccc1-c1cccc(-c2nnn[nH]2)c1` [Example 49], in the series on HIV-IIIb, the inhibition at 2 µM stood at 0%. Also, in the series “in vitro”, the CC50 at 5 days came to 562 nM.

Take `CCCCC(C(=O)N[C@@H](Cc1cc(F)cc(F)c1)c1ncccc1-c1ccc(F)c(C(N)=O)c1)n1ccc(C(F)(F)F)n1` (single isomer, unassigned) [Example 487C]: the inhibition at 2 µM in the series with HIV-IIIb stood at 10%. The same compound returned a cytotoxic concentration (CC50) at 5 days in “in vitro” of 9710 nM.

On to `NC(=O)c1cccc(-c2cccnc2[C@H](Cc2cc(F)cc(F)c2)NC(=O)Cc2cccc(Cl)c2)c1` [Example 510, (S)-3-(2-(1-(2-(3-chlorophenyl)acetamido)-2-(3,5-difluorophenyl)ethyl)pyridin-3-yl)benzamide], for which, in the series with HIV-IIIb, the inhibition at 2 µM is 3%. For the same compound, the midpoint of cytotoxicity in “in vitro”, the CC50 at 5 days, lay at 35900 nM.

For `CC(C)c1cc(C(F)(F)F)nn1CC(=O)N[C@@H](Cc1cc(F)cc(F)c1)c1ncccc1-c1ccc(F)c(C(N)=O)c1` [Example 252, (S)-5-(2-(2-(3,5-difluorophenyl)-1-(2-(5-isopropyl-3-(trifluoromethyl)-1H-pyrazol-1-yl)acetamido)ethyl)pyridin-3-yl)-2-fluorobenzamide], the inhibition at 2 µM with HIV-IIIb is 18%. In “in vitro”, this compound came in with a CC50 at 5 days of 19200 nM.

On to `Cc1cc2ncn(CC(=O)N[C@@H](Cc3cc(F)cc(F)c3)c3ncccc3-c3cccc(C(N)=O)c3)c2cc1C` [Example 278, (S)-3-(2-(2-(3,5-difluorophenyl)-1-(2-(5,6-dimethyl-1H-benzo[d]imidazol-1-yl)acetamido)ethyl)pyridin-3-yl)benzamide], for which, in the series on HIV-IIIb, the inhibition at 2 µM turned out to be 121%. For the same compound, half-maximal cytotoxicity in the series “in vitro” (CC50 at 5 days) was put at 8530 nM.

Regarding `O=C(Cn1nc(C(F)(F)F)cc1C1CC1)N[C@@H](Cc1cc(F)cc(F)c1)c1ncccc1-c1cnc2[nH]ccc2c1` [Example 61F, (S)—N-(1-(3-(1H-pyrrolo[2,3-b]pyridin-5-yl)pyridin-2-yl)-2-(3,5-difluorophenyl)ethyl)-2-(5-cyclopropyl-3-(trifluoromethyl)-1H-pyrazol-1-yl)acetamide], the inhibition at 2 µM in the series on HIV-IIIb worked out at 74%. This compound also yielded a CC50 at 5 days in the series “in vitro” of 17900 nM.
